# Data as given in patent US8278285B2, “Gastric carcinoma gene ZNF312b, a protein translated from the gene, and a diagnostic kit and a screening method for anticancer agents using the same” (Korea Research Institute of Bioscience and Biotechnology, priority 2007, dated 2012).
# Experiments:
# K-ras / ERK pathway = assay: Western blotting of cell proliferation signal pathway after ZNF312b inhibition; type: cell-based, human; details: stomach cancer cell line transfected with siRNA, FIG. 24
# Protocol: First, lysis buffer A [20 mM HEPES (pH7.5), 150 mM NaCl, 1 mM EDTA, 2 mM EGTA, 1% Triton X-100, 10% glycerol, protease cocktail I, II (Sigma, USA)] was added to the cells, which stood at 4° C. for 20 minutes. The cell lysate was transferred into a new tube, followed by centrifugation at 4° C. at 15,000 rpm for 10 minutes to obtain protein. The cell lysate was heated at 95° C. for 10 minutes after adding 5× sample buffer, resulting in gel loading sample which proceeded to SDS PAGE gel electrophoresis. The protein bands separated according to their molecular weights by the above electrophoresis were transferred onto nitrocellulose membrane by using transfer kit (Bio-Rad, USA), followed by blocking for one hour with 5% skim milk. Next, each antibody [HA antibody for the detection of ZNF312b, and tubulin antibody for the detection of the control tubulin] was treated thereto at 4° C. for 12 hours. The membrane was washed with TBST buffer (0.2% Tween 20), and then treated with a secondary antibody for 1 hour. The membrane was washed with TBST and developed using HRP detection kit (AB frontier, Korea).
# To investigate whether the signal pathway system involved in the cell proliferation of stomach cancer cell line was affected by inhibition of ZNF312b gene, the present inventors inhibited the expression of ZNF312b in stomach cancer cell line by transfecting the cell line with si-ZNF312b-1. […]
# ZNF312b gene = ZNF312b gene expression inhibition by siRNA; type: cell-based, human; details: compared among three siRNAs, FIG. 3
# Excerpt: To investigate the cell proliferation capacity of the stomach cancer cell line after inhibiting the expression of ZNF312b gene, three kinds of siRNAs [si-ZNF312b-1: 5′-GCA CTC TCT GCA TCT CAA C-3′ (SEQ. ID. NO: 6), si-ZNF312b-2: 5′-GTG TGT GGA AAG GTC TTT A-3′ (SEQ. ID. NO: 7), and si-ZNF312b-3′: 5′-GCA GTT CAA GTG CAA TAT C-3′ (SEQ. ID. NO: 8)] comprising 19 nucleotides of ZNF312b nucleotide sequence (SEQ. ID. NO: 1) were constructed, which were used for the investigation of ZNF312b gene expression inhibition.
substance,measurement,setting,value
"si-ZNF312b-1: siRNA of 19 nucleotides of ZNF312b sequence, 5′-GCA CTC TCT GCA TCT CAA C-3′ (SEQ. ID. NO: 6) (sense GCACTCTCTGCATCTCAAC; listed as DNA, chemistry not given here)",ERK pathway activity (phosphorylation of MEK1/2 and ERK1/2),K-ras / ERK pathway,inactivation of ERK pathway
same,K-ras expression,K-ras / ERK pathway,decrease of K-ras expression
same,ZNF312b gene expression inhibition,ZNF312b gene,highest inhibition activity
